Measurements reported in patent US10610535B2 (The Regents of the University of California, priority 2005, dated 2020).

How the values were obtained:
[1] = test system: SJL mice with adoptive EAE; settings: followed for the first 27 days; cited from earlier work
[2] = biological target: ERβ as compared to ERα (Homo sapiens, UniProt Q92731); settings: cited from earlier work
[3] = test system: DTH responses to tetanus and candida; set-up: species or system human; settings: in vivo
[4] = test system: DTH responses to tetanus and candida; settings: cited from earlier work
[5] = test system: post-partum patient with relapsing remitting multiple sclerosis; test: Case of post-partum relapsing remitting MS patient; assay type: in vivo, human
Experimental: A patient was diagnosed as having relapsing remitting multiple sclerosis. Following the delivery of their first child (now […]), the patient was treated only with Copaxone and relapsed at 6 weeks. Following the delivery of their second child (now […]), the patient was again treated with Copaxone alone and again relapsed, this time at 4.5 months. Following a subsequent pregnancy, the patient was treated with 8 mg estriol/day in an attempt to prevent their post partum relapses.
Following the birth of the patient's third child (now 6 months), the patient resumed treatment with Copaxone as before. However, on day 10 post-partum they began taking estriol 8 mg/daily in an oral dosage form. […] Since monthly brain MRIs with gadolinium to detect enhancing MS lesions are more sensitive for inflammatory disease activity than relapses, the patient underwent serial monthly MRIs at post partum months 4, 5, and 6.
The patient doubled the progesterone minipill for 2 weeks to stabilize the endometrium. Otherwise no adverse events have been reported.

[6] = test system: women with clinically definite MS; test: Serial cerebral MRI: gadolinium enhancing lesions and T2 lesion volumes
[7] = test system: IFNγ in peripheral blood mononuclear cells (PBMCs); test: IFNγ levels by RT-PCR of unstimulated PBMCs derived ex vivo; assay type: in vivo, human
Experimental: Peripheral blood mononuclear cells (PBMCs) were isolated from heparinized venous blood and cryopreserved. PBMCs were thawed in parallel from a given patient during the two pre-treatment timepoints and the two treatment timepoints. Total RNA was isolated, DNA was removed and mRNA was reverse transcribed. Both IFN-γ and actin were amplified from the same cDNA, however, the cDNA was diluted 1:9 prior to amplification for actin. Amplification was done in 1 mM […] using IFN.γ and actin primer sequences (Life Technologies, Rockville, Md.). Complementary DNA was amplified for 35 cycles: 45″ @ 95° C., 60″ @ 54° C. and 45″ @ 72° C. PCR products were separated on a 1.5% agarose gel containing ethidium bromide and densitometry performed.

[8] = test system: EAE mice; settings: cited from earlier work
[9] = Serum estriol levels (ELISA) in oral estriol crossover trial; assay type: in vivo, human; settings: oral estriol 8 milligrams/day, treatment and re-treatment, MS patients
Experimental: (§1) Subjects were evaluated using the Kurtzke's Expanded Disability Status Scale (EDSS) by the same neurologist (RV) throughout the study. At each visit the study nurse (RK) administered the paced auditory serial addition test (PASAT) and the 9-hole peg test. Blood was drawn for SMA12, cholesterol panel, blood counts and hormone levels (estriol, estradiol, estrone, LH, FSH, cortisol, progesterone). Estriol levels in serum were determined by ELISA according to manufacturer's instructions (Oxford Biomedical, Oxford, Mich.).

[10] = test system: women with clinically definite MS; test: Tolerability and laboratory safety measures, estriol trial and extension phase; assay type: in vivo, human; settings: oral estriol 8 milligrams/day
Description: Twelve female patients with clinically definite MS were enrolled. Six had RR disease and six had SP disease. All six RR and four of six SP patients completed the entire 18 month study period. […] Of the ten patients who completed the entire study, the mean age was 44 years (range 28 to 50 years) and the mean EDSS was 3.3 (range 1.0 to 6.5). The mean EDSS score for the SP patients was 5.0 while the mean EDSS for the RR patients was 2.2. The 18 month trial was extended in RR patients whereby treatment was re-instituted. Medication. For the initial treatment phase, micronized, U.S.P. graded estriol powder (Medisca, Inc., Plattsburg, N.Y.) was put into capsules by UCLA Pharmaceutical Services.
as §1
Indeed, estrogen cannot be given for a lengthy period of time in an “unopposed” fashion in any woman with a uterus. […]

[11] = test system: women with clinically definite MS; settings: pilot clinical trial, non-pregnant female MS patients; cited from earlier work
[12] = test system: women with clinically definite MS; test: Clinical measures: EDSS, 9-hole peg test, PASAT, relapses; assay type: in vivo, human
Experimental: as §1

[13] = test system: peripheral blood mononuclear cells; settings: pilot clinical trial, non-pregnant female MS patients; cited from earlier work
[14] = RR patients, first three months of treatment
[15] = RR patients, next three months of treatment
[16] = 90 day release pellets of 5 or 15 milligrams estriol

ERβ as compared to ERα, sequence (Q92731 whole entry): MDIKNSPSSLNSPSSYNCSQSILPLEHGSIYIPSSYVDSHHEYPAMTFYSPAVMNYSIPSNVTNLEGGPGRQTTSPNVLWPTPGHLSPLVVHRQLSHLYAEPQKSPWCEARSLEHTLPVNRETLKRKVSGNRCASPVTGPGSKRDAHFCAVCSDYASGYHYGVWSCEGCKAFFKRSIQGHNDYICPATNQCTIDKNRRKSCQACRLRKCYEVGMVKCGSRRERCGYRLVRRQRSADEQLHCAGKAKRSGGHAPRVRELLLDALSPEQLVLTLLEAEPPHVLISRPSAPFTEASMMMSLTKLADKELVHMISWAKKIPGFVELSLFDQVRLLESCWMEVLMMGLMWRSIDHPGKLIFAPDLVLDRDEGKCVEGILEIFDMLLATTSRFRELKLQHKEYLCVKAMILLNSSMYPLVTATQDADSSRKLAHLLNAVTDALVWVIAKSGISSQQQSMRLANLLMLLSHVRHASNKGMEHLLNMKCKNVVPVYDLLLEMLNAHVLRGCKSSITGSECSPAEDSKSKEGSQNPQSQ

## C=Cc1cc(O)cc2nc(-c3ccc(O)c(F)c3)oc12 [WAY-202041]
[1]
  Effect in adoptive EAE: no effect
[2]
  Selectivity for ERβ as compared to ERα: 200 fold

## C[C@]12CC[C@@H]3c4ccc(O)cc4CC[C@H]3[C@@H]1CC(O)C2O (some centres unmarked) [estriol, estra-1,3,5(10)-triene-3,16,17-triol]
[3]
  DTH responses to candida: decreased less dramatically and more variably
  DTH responses to tetanus: significantly, P=−0.006, decreased
[4]
  Delayed type hypersensitivity response (prototypic in vivo Th1 response): reduced
[5]; estriol 8 mg/daily oral from day 10 post-partum, with Copaxone, third child
  Post-partum relapses: no relapses for 6 months
[5]; estriol 8 mg/daily with Copaxone and norethindrone 0.35 mg daily
  Adverse events: increased irregular menstrual bleeding
[5]; estriol 8 mg/daily with Copaxone, 6 months post-partum
  EDSS: 1
[5]; month 3 and 6
  Uterine ultrasounds: thin, not thick, endometrium
[5]; post partum month 4, estriol with Copaxone
  Gadolinium enhancement on brain MRI: no enhancement
[5]; post partum month 5, estriol with Copaxone
  Gadolinium enhancement on brain MRI: only one small enhancing lesion
[5]; post partum month 6, estriol with Copaxone
  Gadolinium enhancement on brain MRI: No new enhancement
[5]; post partum months 4-6, estriol with Copaxone
  T2 lesion load: stable throughout
[6]; RR group, four month re-treatment extension period
  Change in median T2 lesion volumes (lower): 2.0%
[6]; RR group, six month post treatment period
  Change in median T2 lesion volumes (higher): 7.4%
[6]; RR group, six month treatment period
  Change in median T2 lesion volumes: 0%
[6]; [14]
  Decrease in median total enhancing lesion numbers: 82%
  Decrease in median total enhancing lesion volumes: 79%
[6]; RR patients, last three months of the post treatment period
  Median total enhancing lesion volumes and numbers: returning to near baseline levels
[6]; [15]
  Decrease in median total enhancing lesion numbers: 82%
  Decrease in median total enhancing lesion volumes: 82%
[6]; all ten MS patients (6RR, 4SP), treatment period vs six month pretreatment baseline
  Total volume and number of enhancing lesions: decreased
[7]; four SP patients
  Levels of IFNγ: no decrease
[7]; six RR patients, study month 9 (three months of treatment) vs pretreatment
  Levels of IFNγ: variably decreased
[7]; six RR patients, study month 12 (six months of treatment) vs pretreatment
  Levels of IFNγ: significantly decreased
[8]; 90 day release pellets of 5 or 15 milligrams estriol, before or after disease onset
  EAE disease severity: reduced
[8]; [16]
  Inflammation and demyelination: reduced inflammation and demyelination
  Production of the Th2 cytokine IL-10: increase production
[8]; late pregnancy levels of estriol or supraphysiological doses of estradiol (5 times pregnancy levels)
  Onset of clinical EAE: delay the onset
[9]
  Serum estriol levels: approximated those observed in women who were six months pregnant
[10]
  Laboratory measures including LH, FSH, cortisol, progesterone, estradiol and estrone: no significant alterations
[10]; six months
  Tolerability: well tolerated with only menstrual cycle abnormalities
[11]
  Reduction of gadolinium-enhancing lesions on serial brain MRIs: > 80%
[12]; 4 RR, L, 9 mo., Estriol Treatment
  Hole Peg Test Score: 24.3
[12]; 4 RR, L, 12 mo., Estriol Treatment
  Hole Peg Test Score: 23.3
[12]; 4 RR, L, 15 mo., Post Treatment
  Hole Peg Test Score: 23.0
[12]; 4 RR, L, 18 mo., Post Treatment
  Hole Peg Test Score: 22.7
[12]; 4 RR, R, 9 mo., Estriol Treatment
  Hole Peg Test Score: 22.5
[12]; 4 RR, R, 12 mo., Estriol Treatment
  Hole Peg Test Score: 21.5
[12]; 4 RR, R, 15 mo., Post Treatment
  Hole Peg Test Score: 21.0
[12]; 4 RR, R, 18 mo., Post Treatment
  Hole Peg Test Score: 21.4
[12]; 4 SP, 9 mo., Estriol Treatment
  EDSS Scores: 4.9
[12]; 4 SP, 12 mo., Estriol Treatment
  EDSS Scores: 5.0
[12]; 4 SP, 15 mo., Post Treatment
  EDSS Scores: 5.1
[12]; 4 SP, 18 mo., Post Treatment
  EDSS Scores: 5.0
[12]; 4 SP, L, 9 mo., Estriol Treatment
  Hole Peg Test Score: 22.7
[12]; 4 SP, L, 12 mo., Estriol Treatment
  Hole Peg Test Score: 24.8
[12]; 4 SP, L, 15 mo., Post Treatment
  Hole Peg Test Score: 26.7
[12]; 4 SP, L, 18 mo., Post Treatment
  Hole Peg Test Score: 25.0
[12]; 4 SP, R, 9 mo., Estriol Treatment
  Hole Peg Test Score: 30.2
[12]; 4 SP, R, 12 mo., Estriol Treatment
  Hole Peg Test Score: 31.7
[12]; 4 SP, R, 15 mo., Post Treatment
  Hole Peg Test Score: 29.4
[12]; 4 SP, R, 18 mo., Post Treatment
  Hole Peg Test Score: 34.0
[12]; 6 RR, 9 mo., Estriol Treatment
  EDSS Scores: 1.5
[12]; 6 RR, 12 mo., Estriol Treatment
  EDSS Scores: 1.7
[12]; 6 RR, 15 mo., Post Treatment
  EDSS Scores: 1.8
[12]; 6 RR, 18 mo., Post Treatment
  EDSS Scores: 1.8
[12]; RR patients, during treatment as compared to baseline
  Improvement in PASAT scores: 14.0%
[12]; SP patients, whole study
  Relapses: No relapses
[12]; during the study
  EDSS and 9 Hole Peg Test scores: no significant changes
[12]; six RR patients, post treatment period
  Relapses: two
[12]; six RR patients, re-treatment period
  Relapses: none
[12]; six RR patients, treatment period
  Relapses: one
[13]
  TH2 (IL5, IL10) cytokine production by peripheral blood mononuclear cells: increased
  Th1 (TNFα, IFNγ) cytokine production by peripheral blood mononuclear cells: reduced
